The EC50 is the midpoint of the concentration-response curve.

The values below come from US11771685B2, “Compounds for the treatment of neurological or mitochondrial diseases” (MUSC FOUNDATION FOR RESEARCH DEVELOPMENT, priority 2018, dated 2023).

The subject of data set [1] is PTZ-induced seizure activity in zebrafish larvae. Nature of the data set: Zebrafish PTZ-induced seizure model. In kind it is in vivo. The note with it: for minimal effective concentration / anti-seizure activity: 7 dpf larvae; for minimal effective concentration: 1 hr pre-treatment, 10 mM PTZ, read-out: Anti-seizure activity: lowest tested dose with significant difference vs PTZ-only group; for anti-seizure activity: PTZ. Here is the method:
The zebrafish PTZ-induced seizure model was used to determine the most promising compounds' in vivo efficacy. Zebrafish larvae (7 dpf) were treated with the compound for 1 hr prior to inducing seizures with PTZ. As established by previous larval zebrafish anti-seizure studies (Rahn et al., 2014; Hansen et al., 2004; Baraban et al., 2005), total distance traveled by each fish after seizure induction was measured and used as a proxy for seizure activity. Following collection of locomotor data, observation of a startle response and visual inspection for abnormal morphology confirmed that alterations in swim activity were not caused by compound toxicity.
We induced seizures in 7 dpf zebrafish larvae by the addition of […] PTZ as originally developed by Baraban et al., 2005. In a 48-well plate, one 7-dpf zebrafish was added per well. Larvae were dosed with each compound at a sub-lethal dose 1 hr prior to PTZ treatment. Two control rows were included with each experiment—tank water only control and PTZ only. Seizures were induced by adding PTZ to wells to yield a final concentration of 10 mM. After 5 min, the plate was transferred to the Daniovision instrument (Noldus Information Technology) and the chamber light was turned on. After 2 min, MediaRecorder (Noldus) was used to record video for 15 min. A small number of videos were acquired at 25 frames per second, but the majority of data were acquired at 60 frames per second. […] Ethovision XT software (Noldus) was used to track the fish movement from the video images in order to calculate the total distance traveled over 15 min. All experimental comparisons were made between animals from the same clutch.
(§1) Statistical analyses were performed with GraphPad Prism 6 software. For the in vitro HT22 oxytosis assay, dose-response data were fit using GraphPad Prism's log(inhibitor) vs normalized response-variable slope parameters to determine EC50 values and 95% confidence intervals. For the zebrafish locomotive anti-seizure activity data, multiple comparisons were made using a one-way analysis of variance (ANOVA) with a Kruskal-Wallis Test, followed by the Dunn's Method to determine significant differences between all pairs or between control and experimental groups using the Dunn Method for Joint Ranking. Differences were considered statistically significant when p<0.05. Data from zebrafish experiments are represented as scatter dot plots of individual measurements, with means±standard deviation indicated by bars.

The test system of a further data set is HT22 cells. In words: HT22 oxytosis (glutamate-induced cell death) neuroprotection assay. The format is cell-based, mouse. The conditions noted are these: 10 mM Glu. Here is the method:
The HT22 murine hippocampal cell system was chosen as an initial phenotypic screen for neuroprotective efficacy (Andreux et al., 2013; Andreux et al., 2014; Ohlow et al., 2017; Schubert and Maher, 2012). HT22 cells exposed to high extracellular Glu ([…]) undergo oxytosis, a non-apoptotic programmed cell death involving glutathione (GSH) depletion followed by ROS accumulation, oxidative damage, and a cytotoxic signaling cascade (Tan et al., 2001). Glu blocks the −xC cystine antiporter, causing (Tan et al., 2001) cells to accumulate severe oxidative stress, mitochondrial depolarization, disrupted mitochondrial morphology, and Ca^2+ influx (Tan et al., 2001; Yang et al., 2011; Cheng et al., 2013—cellular events that may occur in neurological diseases, including epilepsy. Thus, the immortalized HT22 cell line is a well-established model of neuronal oxidative stress (Sagara and Schubert, 1998; Matsumoto et al., 1996; Albrecht et al., 2010; Ha and Park, 2006; van Leyen et al., 2005; Tobaben et al., 2011), and a verified model of neurodegeneration to screen for potential neuroprotective drugs (Albrecht et al., 2010; van Leyen et al., 2008; Lewerenz et al., 2009; Lewerenz et al., 2003).
Consistent with that work, most of the 2-amino compounds achieved protection of HT22 cells against glutamate-induced oxytosis in the nM to μM range. […] Neuroprotection based on relative cell viability compared to +Glu and −Glu control cells was measured.
The HT22 neuronal cell line is a subclone of HT4, derived from the mouse hippocampus (Morimoto and Koshland, 1990). […] The HT22 cells used in this study were kindly provided by Dr. David Schubert (The Salk Institute for Biological Studies, La Jolla, CA, USA). The cells were grown in Dulbecco's Modified Eagle's Medium (DMEM/high glucose) supplemented with 10% fetal bovine serum (Hyclone) and 5 mL of antibiotic-antimycotic (Amphotericin B, Penicillin, and Streptomycin; Invitrogen) at 37° C. in 5% CO2.
HT-22 cells were seeded onto 96-well plates at 2.5×10^3 cells per well in 75 μL of medium and maintained at 37° C. in 5% CO2 overnight prior to the initiation of experimental treatments. For glutamate toxicity testing, cells were subsequently treated with 25 μL of medium containing glutamate (monosodium glutamate, Sigma, 1 M stock concentration in media, to achieve a final concentration of 10 mM) plus compound (stock in DMSO) and maintained at 37° C. in 5% CO2 for 24 hr. CellTiter-Blue® (resazurin cell viability assay reagent) was then added to each well at a final concentration of 0.125 mg/mL. The mixture was allowed to incubate for 2-4 hr until sufficient color change occurred. Cell viability was measured as a function of resorufin fluorescence intensity using a Tecan M200 Pro spectrophotometer, 560 nm/590 nm (excitation/emission). Cell viability was calculated as a percentage compared with untreated controls. EC50s were determined using GraphPad Prism's “log(inhibitor) vs. normalized response-Variable slope” function. Morphology of HT22 cells following treatments was determined by phase-contrast microscopy.
as §1

Another data set has as its system Zebrafish larvae. Nature of the data set: In vivo toxicology in zebrafish larvae. The note with it: for concentration lethal/toxic at 24 hr / overt toxicity observation: 7 dpf larvae; for overt toxicity observation: 5-20 μM, observed 1, 5 and 24 hr. Here is the method: Zebrafish larvae, 7 days post-fertilization (dpf), were exposed to compounds at 20, 15, 10, and 5 μM, six larvae per compound. Animals were observed 1, 5, and 24 hr after dosing for overt toxicity (altered survival, morbidity, morphological deformity). Heart rate, behavior, and startle response were monitored at each time point.
Zebrafish (AB strain) were obtained from the Zebrafish International Resource Center (supported by P40 RR012546 from NIH—NCRR). Zebrafish were maintained and crossed according to standard methods (Westerfield, 2000). Fertilized eggs were collected and placed in E3 embryo medium and positioned in an incubator set at 28.5° C. with a 14/10-hr light/dark cycle (Kimmel et al., 1995). To determine the lethal dose of each compound, 96-well plates containing one zebrafish (7 days post-fertilization, dpf) per well in 100 μL of tank water were used. 100 μL of each compound (0.5-15 μM) was added to each well for 12 animals (one row) for a final volume of 200 μL. One row of larvae was used as dimethyl sulfoxide (DMSO)-only controls. […] All zebrafish studies were approved by the Medical University of South Carolina Institutional Animal Care and Use Committee (#180278) and performed in accordance with the guidelines.
Using a 96-well plate, 7 dpf zebrafish were placed one per well with 100 μL of tank water. 100 μL of each compound was then added to each well for 12 animals (one row) for a final volume of 200 μL. One row of zebrafish larvae was used as DMSO only controls.

Where [2] appears, read: Mus musculus, HT-22, 24 h, HT22 cells, 24 hr, 95% CI in parentheses.
[3] abbreviates: Mus musculus, HT-22, HT22 cells.
Where [4] appears, read: Danio rerio, read-out: reduction of PTZ-induced locomotor activity.

Turning to `C#CC(C)NC1=CC(=O)c2ccccc2C1=O` (racemic) [Compound 19, Rac-2-(but-3-yn-2-ylamino)naphthalene-1,4-dione], the minimal effective concentration in data set [1] (Danio rerio) was greater than 10 µM. Moreover, the EC50 is 2140 nM in the data set on HT22 cells (setting [2]) and roughly 1500 nM with HT22 cells (setting [3]). For the same compound, the fish dead result in the data set on Zebrafish larvae (10 μM, 5 hr) is reported as “⅙”. Further, the toxic concentration in the data set with Zebrafish larvae (AB, zebrafish, in vivo, 5 hr) was no less than 10 µM.
Take `CC#CCNC1=CC(=O)c2ccccc2C1=O` [Compound 2, 2-(But-2-yn-1-ylamino)naphthalene-1,4-dione]: in data set [1] (Danio rerio), the minimal effective concentration is greater than 20 µM. The inhibition in vivo at 40 µM in data set [1] (Danio rerio, 40 μM, read-out: reduction of PTZ-induced locomotor activity) worked out at 89%. In addition, the 50% effective concentration (EC50) with HT22 cells (setting [2]) was 1220 nM. In the data set on Zebrafish larvae (5 μM, 24 hr), the fish dead entry was “⅚”. The “concentration lethal/toxic at 24 hr” value in the data set on Zebrafish larvae (24 hr) was no less than 10 µM.
On to `CCCC#CCNC1=CC(=O)c2ccccc2C1=O` [Compound 4, 2-(Hex-2-yn-1-ylamino)naphthalene-1,4-dione], for which the minimal effective concentration in data set [1] (Danio rerio) is greater than 20 µM. Further, the inhibition in vivo at 10 µM in data set [1] (setting [4]) is roughly 80%. Besides, the inhibition in vivo at 20 µM in data set [1] (Danio rerio, 20 μM, read-out: reduction of PTZ-induced locomotor activity) is roughly 80%. In the data set on HT22 cells (setting [2]), the EC50 amounted to 989 nM. The fish dead result in the data set on Zebrafish larvae (10 μM, 24 hr) was “⅙”.
Consider `CCCCC#CCNC1=CC(=O)c2ccccc2C1=O` [Compound 5, 2-(Hept-2-yn-1-ylamino)naphthalene-1,4-dione], for which the minimal effective concentration in data set [1] (Danio rerio) is no more than 5 µM. In data set [1] (setting [4]), the inhibition in vivo at 5 µM worked out at 84% and the inhibition in vivo at 10 µM was found to be 77%. The EC50 in the data set on HT22 cells (setting [2]) is 1570 nM. In the data set with Zebrafish larvae (24 hr), the “concentration lethal/toxic at 24 hr” value worked out at 20 µM.
With `CN(C)CC#CCNC1=CC(=O)c2ccccc2C1=O` [Compound 7, 2-((4-(Dimethylamino)but-2-yn-1-yl)amino)naphthalene-1,4-dione], the “HT22 protection” value with HT22 cells (HT22 cells) is “poor protection”. Further, the overt toxicity observation result in the data set with Zebrafish larvae is “lethal at most concentrations”.
For `O=C1C=C(NCC#Cc2ccccc2)C(=O)c2ccccc21` [Compound 8, 2-((3-Phenylprop-2-yn-1-yl)amino)naphthalene-1,4-dione], in the data set with HT22 cells (Mus musculus, HT-22, HT22 cells, 24 hr, 95% CI in parentheses), the EC50 was found to be 162 nM. For the same compound, in the data set on Zebrafish larvae, the overt toxicity observation entry is “not lethal at any concentration”.
`CS(=O)(=O)Nc1cccc(C#CCNC2=CC(=O)c3ccccc3C2=O)c1` [Compound 14, N-(3-(3-((1,4-dioxo-1,4-dihydronaphthalen-2-yl)amino)prop-1-yn-1-yl)phenyl)methanesulfonamide]: the EC50 in the data set with HT22 cells (setting [2]) is 1940 nM; in the data set on HT22 cells (setting [3]), roughly 2000 nM. In the data set on Zebrafish larvae (after 5 hr), the “concentration lethal to all fish” value was found to be 10 µM.
Consider `CC#CCCNC1=CC(=O)c2ccccc2C1=O` [Compound 15, 2-(Pent-3-yn-1-ylamino)naphthalene-1,4-dione], for which the EC50 in the data set on HT22 cells (setting [2]) was 2910 nM; in the data set with HT22 cells (setting [3]) it was greater than 2000 nM. Further, the overt toxicity observation result in the data set on Zebrafish larvae was “acutely lethal to most fish at the lowest concentration after 1 hr”.
The like results for `CCC#CCCNC1=CC(=O)c2ccccc2C1=O` [Compound 16, 2-(Hex-3-yn-1-ylamino)naphthalene-1,4-dione] were, in that order, 5600 nM, greater than 2000 nM and “acutely lethal to most fish at the lowest concentration after 1 hr”.
With `CC(C)=CCC/C(C)=C/CNC1=C(C)C(=O)c2ccccc2C1=O` [Compound 24, (E)-2-((3,7-Dimethylocta-2,6-dien-1-yl)amino)-3-methylnaphthalene-1,4-dione], the “anti-seizure activity” value in data set [1] is reported as “ineffective”. Besides, the minimal effective concentration in data set [1] (Danio rerio) was greater than 10 µM. Besides, the EC50 was 2740 nM with HT22 cells (setting [2]) and roughly 2700 nM in the data set on HT22 cells (setting [3]).
In the case of `CCC#CCOC1=CC(=O)c2ccccc2C1=O` [Compound 29, 2-(Pent-2-yn-1-yloxy)naphthalene-1,4-dione], the minimal effective concentration in data set [1] (Danio rerio) was no more than 5 µM. In data set [1] (setting [4]), the inhibition in vivo at 5 µM stood at 60%. Besides, in data set [1] (setting [4]), the inhibition in vivo at 10 µM stood at 53%. The EC50 was 307 nM in the data set with HT22 cells (HT22 cells, 24 hr, 95% CI in parentheses) and roughly 300 nM in the data set with HT22 cells (setting [2]).
Regarding `CCCC#CCOC1=CC(=O)c2ccccc2C1=O` [Compound 30, 2-(Hex-2-yn-1-yloxy)naphthalene-1,4-dione], the minimal effective concentration in data set [1] (Danio rerio) amounted to 5 µM. Further, in data set [1] (setting [4]), the inhibition in vivo at 5 µM worked out at 53% and the inhibition in vivo at 10 µM was determined as 68%. For the same compound, in the data set with HT22 cells (setting [2]), the EC50 came out at 249 nM.
With `CCCCC#CCOC1=CC(=O)c2ccccc2C1=O` [Compound 31, 2-(Hept-2-yn-1-yloxy)naphthalene-1,4-dione], the “anti-seizure activity” value in data set [1] is recorded as “reduced swim distance to control levels”. Further, the minimal effective concentration in data set [1] (Danio rerio) came out at 10 µM. Besides, the inhibition in vivo at 5 µM in data set [1] (setting [4]) was 48%. In data set [1] (lack of survival or behavioral impairments), the “toxic effects during PTZ-induced seizure experiments” value is recorded as “higher-than-normal occurrences of toxic effects”. Moreover, the EC50 in the data set with HT22 cells (setting [2]) amounted to 76.1 nM.
